Measured values from ChEMBL document CHEMBL5241092, “The antibacterial activity of fluoroquinolone derivatives: An update (2018-2021)” (2021).
Values after ≈ are worked out from the molar mass of the structure shown.

Legend:
Escherichia coli [1] = assay: Antibacterial activity against Escherichia coli; assay type: functional
Pseudomonas aeruginosa [2] = assay: Antibacterial activity against Pseudomonas aeruginosa; assay type: functional
Staphylococcus aureus [3] = assay: Antibacterial activity against Staphylococcus aureus; assay type: functional
Staphylococcus aureus [4] = assay: Antibacterial activity against methicillin resistant Staphylococcus aureus; assay type: functional
[5] = system: Staphylococcus epidermidis; assay: Antibacterial activity against Staphylococcus epidermidis; assay type: functional
Staphylococcus aureus [6] = assay: Antibacterial activity against methicillin susceptible Staphylococcus aureus; assay type: functional
Staphylococcus aureus [7] = assay: Potency index, ratio of ciprofloxacin MIC to test compound MIC for antibacterial activity against Staphylococcus aureus; assay type: functional
Staphylococcus aureus [8] = assay: Potency index, ratio of ciprofloxacin MIC to test compound MIC for antibacterial activity against methicillin sensitive Staphylococcus aureus; assay type: functional
[9] = system: Staphylococcus epidermidis; assay: Potency index, ratio of ciprofloxacin MIC to test compound MIC for antibacterial activity against methicillin sensitive Staphylococcus epidermidis; assay type: functional
Pseudomonas aeruginosa [10] = assay: Antibacterial activity against Pseudomonas aeruginosa PAO200; assay type: functional
Pseudomonas aeruginosa [11] = assay: Antibacterial activity against Pseudomonas aeruginosa PAO750; assay type: functional
Pseudomonas aeruginosa [12] = assay: Antibacterial activity against Pseudomonas aeruginosa PAO1; assay type: functional
Pseudomonas aeruginosa [13] = assay: Synergistic antibacterial activity against Pseudomonas aeruginosa assessed as reduction in mitomycin C MIC (reference value: […] to […] microg/ml); assay type: functional
Escherichia coli [14] = assay: Synergistic antibacterial activity against Escherichia coli assessed as reduction in mitomycin C MIC (reference value: […] to […] microg/ml); assay type: functional
Klebsiella pneumoniae [15] = assay: Synergistic antibacterial activity against Klebsiella pneumoniae assessed as reduction in mitomycin C MIC (reference value: […] to […] microg/ml); assay type: functional
Enterobacter cloacae = assay: Synergistic antibacterial activity against Enterobacter cloacae assessed as reduction in mitomycin C MIC (reference value: […] to […] microg/ml); assay type: functional
Staphylococcus aureus [16] = assay: Antibacterial activity against fluoroquinolone sensitive Staphylococcus aureus; assay type: functional
Staphylococcus aureus [17] = assay: Antibacterial activity against fluoroquinolone/methicillin resistant Staphylococcus aureus; assay type: functional
Staphylococcus aureus [18] = assay: Potency index, ratio of levofloxacin MIC to test compound MIC for antibacterial activity against fluoroquinolone/methicillin resistant Staphylococcus aureus; assay type: functional
Klebsiella pneumoniae [19] = assay: Antibacterial activity against Klebsiella pneumoniae; assay type: functional
[20] = Antibacterial activity against Salmonella typhi; assay type: functional, Salmonella enterica subsp. enterica serovar Typhimurium; conditions: Salmonella enterica
Vibrio cholerae = assay: Antibacterial activity against Vibrio cholerae; assay type: functional
Shigella flexneri = assay: Antibacterial activity against Shigella flexneri; assay type: functional
Citrobacter freundii = assay: Antibacterial activity against Citrobacter freundii; assay type: functional
Streptococcus pneumoniae = assay: Antibacterial activity against Streptococcus pneumoniae; assay type: functional
Staphylococcus aureus [21] = assay: Antibacterial activity against methicillin resistant Staphylococcus aureus reference strain; assay type: functional
Staphylococcus aureus [22] = assay: Antibacterial activity against methicillin resistant Staphylococcus aureus clinical strain; assay type: functional
Pseudomonas aeruginosa [23] = assay: Antibacterial activity against quinolone susceptible Pseudomonas aeruginosa; assay type: functional
Escherichia coli [24] = assay: Antibacterial activity against quinolone susceptible Escherichia coli; assay type: functional
Pseudomonas aeruginosa [25] = assay: Antibacterial activity against quinolone resistant Pseudomonas aeruginosa; assay type: functional
Escherichia coli [26] = assay: Antibacterial activity against quinolone resistant Escherichia coli; assay type: functional
Acinetobacter baumannii [27] = assay: Antibacterial activity against quinolone resistant Acinetobacter baumannii; assay type: functional
Pseudomonas aeruginosa [28] = assay: Potency index, ratio of levofloxacin MIC to test compound MIC for quinolone resistant Pseudomonas aeruginosa; assay type: functional
Escherichia coli [29] = assay: Potency index, ratio of levofloxacin MIC to test compound MIC for quinolone resistant Escherichia coli; assay type: functional
Acinetobacter baumannii [30] = assay: Potency index, ratio of levofloxacin MIC to test compound MIC for quinolone resistant Acinetobacter baumannii; assay type: functional
[31] = system: Yersinia pseudotuberculosis; assay: Antibacterial activity against Yersinia pseudotuberculosis; assay type: functional
Enterococcus faecalis = assay: Antibacterial activity against Enterococcus faecalis; assay type: functional
Bacillus cereus = assay: Antibacterial activity against Bacillus cereus; assay type: functional
Salmonella enteritidis = assay: Antibacterial activity against Salmonella enteritidis; assay type: functional, Salmonella enterica subsp. enterica serovar Enteritidis; conditions: Salmonella enterica
Staphylococcus aureus [32] = assay: Antibacterial activity against methicillin resistant Staphylococcus aureus 1; assay type: functional
Staphylococcus aureus [33] = assay: Antibacterial activity against methicillin resistant Staphylococcus aureus 2; assay type: functional
Staphylococcus aureus [34] = assay: Antibacterial activity against methicillin resistant Staphylococcus aureus 3; assay type: functional
Staphylococcus aureus [35] = assay: Potency index, ratio of vancomycin MIC to test compound MIC for antibacterial activity against methicillin resistant Staphylococcus aureus 1; assay type: functional
Staphylococcus aureus [36] = assay: Potency index, ratio of vancomycin MIC to test compound MIC for antibacterial activity against methicillin resistant Staphylococcus aureus 2; assay type: functional
Staphylococcus aureus [37] = assay: Potency index, ratio of vancomycin MIC to test compound MIC for antibacterial activity against methicillin resistant Staphylococcus aureus 3; assay type: functional
Escherichia coli [38] = assay: Antibacterial activity against Escherichia coli UTI89; assay type: functional
Escherichia coli [39] = assay: Antibacterial activity against Escherichia coli CFT073; assay type: functional

O=C(CSC(=S)N1CCN(c2cc3c(cc2F)c(=O)c(C(=O)O)cn3C2CC2)CC1)Nc1ccccc1Cl
MIC (Escherichia coli [1]): 0.024 µg/mL (≈ 0.0417 µM)
MIC (Pseudomonas aeruginosa [2]): 0.024 µg/mL (≈ 0.0417 µM)
MIC (Staphylococcus aureus [3]): 0.097 µg/mL (≈ 0.169 µM)
MIC (Staphylococcus aureus [4]): 0.097 µg/mL (≈ 0.169 µM)
MIC [5]: 0.097 µg/mL (≈ 0.169 µM)
MIC (Staphylococcus aureus [6]): 0.097 µg/mL (≈ 0.169 µM)
Ratio (Staphylococcus aureus [7]): 2
Ratio (Staphylococcus aureus [8]): 2
Ratio [9]: 2

NC[C@H]1O[C@H](O[C@H]2[C@H](OCCCCN3CCN(c4cc5c(cc4F)c(=O)c(C(=O)O)cn5C4CC4)CC3)[C@@H](O[C@H]3O[C@H](CO)[C@@H](O)[C@H](N)[C@H]3O)[C@H](N)C[C@@H]2N)[C@H](N)C[C@@H]1O
MIC (Pseudomonas aeruginosa [10]): 4 µg/mL (≈ 4.69 µM)
MIC (Pseudomonas aeruginosa [11]): 2 µg/mL (≈ 2.34 µM)
MIC (Pseudomonas aeruginosa [12]): 32 µg/mL (≈ 37.5 µM)
MIC (Pseudomonas aeruginosa [13]): 0.31 µg/mL
MIC (Escherichia coli [14]): 0.31 µg/mL
MIC (Klebsiella pneumoniae [15]): 0.31 µg/mL
MIC (Enterobacter cloacae): 0.31 µg/mL

CC(Cl)C(=O)OC1CC2CCC(C1)N2c1c(F)cc2c(=O)c(C(=O)O)cn3c2c1OC[C@@H]3C (some centres undefined)
MIC (Staphylococcus aureus [16]): ≤ 0.5 µg/mL
MIC (Staphylococcus aureus [17]): ≤ 0.5 µg/mL
Ratio (Staphylococcus aureus [18]): 4

O=C(O)c1cn(C2CC2)c2cc(N3CCN(CN4c5ccccc5C(=O)N(c5ccc(Br)cc5)C4c4ccccc4)CC3)c(F)cc2c1=O (centres undefined)
MIC (Klebsiella pneumoniae [19]): 0.1 µg/mL (≈ 0.138 µM)
MIC (Pseudomonas aeruginosa [2]): 0.1 µg/mL (≈ 0.138 µM)
MIC (Staphylococcus aureus [3]): 0.1 µg/mL (≈ 0.138 µM)
MIC [5]: 0.1 µg/mL (≈ 0.138 µM)
MIC [20]: 0.1 µg/mL (≈ 0.138 µM)
MIC (Vibrio cholerae): 0.1 µg/mL (≈ 0.138 µM)
MIC (Shigella flexneri): 0.1 µg/mL (≈ 0.138 µM)
MIC (Citrobacter freundii): 0.1 µg/mL (≈ 0.138 µM)

COc1c(N2CCNC(C)C2)c(F)cc2c(=O)c(C(=O)O)cn(C3CC3)c12 (centres undefined) [GATIFLOXACIN]
MIC (Staphylococcus aureus [3]): 0.06 µg/mL (≈ 0.16 µM)
MIC (Staphylococcus aureus [6]): 0.06 µg/mL (≈ 0.16 µM)
MIC (Streptococcus pneumoniae): 0.06 µg/mL (≈ 0.16 µM)

O=C(O)c1cn(C2CC2)c2cc(N3CCN(Cc4c(O)ccc5ccccc45)CC3)c(F)cc2c1=O
MIC (Escherichia coli [1]): 0.012 µg/mL (≈ 0.0246 µM)
MIC (Klebsiella pneumoniae [19]): 0.012 µg/mL (≈ 0.0246 µM)
MIC (Pseudomonas aeruginosa [2]): 0.012 µg/mL (≈ 0.0246 µM)
MIC (Staphylococcus aureus [21]): 0.012 µg/mL (≈ 0.0246 µM)
MIC (Staphylococcus aureus [22]): 0.012 µg/mL (≈ 0.0246 µM)

CNC1CN(c2c(F)c(C)c3c(=O)c(C(=O)O)cn(-c4cc(N)c(F)cc4CO)c3c2Cl)C1
MIC (Pseudomonas aeruginosa [23]): 0.008 µg/mL (≈ 0.0167 µM)
MIC (Escherichia coli [24]): 0.008 µg/mL (≈ 0.0167 µM)
MIC (Pseudomonas aeruginosa [25]): 0.12 µg/mL (≈ 0.251 µM)
MIC (Escherichia coli [26]): 0.12 µg/mL (≈ 0.251 µM)
MIC (Acinetobacter baumannii [27]): 0.12 µg/mL (≈ 0.251 µM)
Ratio (Pseudomonas aeruginosa [28]): 2
Ratio (Escherichia coli [29]): 2
Ratio (Acinetobacter baumannii [30]): 2

CCn1cc(C(=O)O)c(=O)c2cc(F)c(N3CCNCC3)cc21 [NORFLOXACIN]
MIC (Escherichia coli [1]): < 0.24 µg/mL
MIC [31]: < 0.24 µg/mL
MIC (Pseudomonas aeruginosa [2]): < 0.24 µg/mL
MIC (Staphylococcus aureus [3]): < 0.24 µg/mL
MIC (Enterococcus faecalis): < 0.24 µg/mL
MIC (Bacillus cereus): < 0.24 µg/mL
MIC [20]: 2.4 µg/mL (≈ 7.52 µM)
MIC (Salmonella enteritidis): 0.0625 µg/mL (≈ 0.196 µM)

COc1cc(C=O)cc(CN2CCN(c3cc4c(cc3F)c(=O)c(C(=O)O)cn4C3CC3)CC2)c1O
MIC (Escherichia coli [1]): 0.012 µg/mL (≈ 0.0242 µM)
MIC (Klebsiella pneumoniae [19]): 0.012 µg/mL (≈ 0.0242 µM)
MIC (Pseudomonas aeruginosa [2]): 0.012 µg/mL (≈ 0.0242 µM)
MIC (Staphylococcus aureus [21]): 0.012 µg/mL (≈ 0.0242 µM)
MIC (Staphylococcus aureus [22]): 0.012 µg/mL (≈ 0.0242 µM)

CCn1cc(C(=O)O)c(=O)c2cc(F)c(N3CCN(Cc4nnc(-c5ccccc5Cl)o4)CC3)cc21
MIC (Staphylococcus aureus [3]): 0.25 µg/mL (≈ 0.488 µM)
MIC (Staphylococcus aureus [32]): 0.25 µg/mL (≈ 0.488 µM)
MIC (Staphylococcus aureus [33]): 0.25 µg/mL (≈ 0.488 µM)
MIC (Staphylococcus aureus [34]): 0.25 µg/mL (≈ 0.488 µM)

CCn1cc(C(=O)O)c(=O)c2cc(F)c(N3CCN(Cc4nnc(-c5cccc(OC)c5)o4)CC3)cc21
MIC (Staphylococcus aureus [3]): 2 µg/mL (≈ 3.94 µM)
MIC (Staphylococcus aureus [32]): 0.5 µg/mL (≈ 0.985 µM)
MIC (Staphylococcus aureus [33]): 0.5 µg/mL (≈ 0.985 µM)
MIC (Staphylococcus aureus [34]): 1 µg/mL (≈ 1.97 µM)
Ratio (Staphylococcus aureus [35]): 2
Ratio (Staphylococcus aureus [36]): 2
Ratio (Staphylococcus aureus [37]): 2

CC(=O)c1cn(C2CC2)c2cc(N3CCN(C(=O)CCCCCNC(=O)c4cc(O)c(O)c(C(=O)N[C@H]5COC(=O)[C@@H](NC(=O)c6cccc(O)c6O)COC(=O)[C@@H](NC(=O)c6cccc(O)c6O)COC5=O)c4)CC3)c(F)cc2c1=O
MIC (Escherichia coli [38]): 0.1 µg/mL (≈ 0.0879 µM)
MIC (Escherichia coli [39]): 0.1 µg/mL (≈ 0.0879 µM)
